Experimental data reported in patent US12630547B2, “RAS protein degraders, pharmaceutical compositions thereof, and their therapeutic applications” (BioTheryX, Inc., priority 2019, dated 2026).

Legend:
Type in all cases: cell-based
MOLM-13 cells = assay: Cell viability assay (CELLTITER-GLO), MOLM-13 cells; settings: Homo sapiens, MOLM-13, 72 h; Table 2; compound at 10 μM, 3 days; read-out: Effect on MOLM-13 cell viability (% DMSO)
How it was run: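 Viability, as % of DMSO control, was read by CellTiter-Glo luminescence after a 3-day compound exposure (single dose of 10 μM or 1 μM) at 37 °C. Cells plated at 4,000/well in RPMI 1640 with 10% FBS. Results reported as categories A <10%, B 10–<25%, C 25–<50%, D ≥50%.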

H358 cells = assay: Cell viability assay (CELLTITER-GLO), H358 cells; settings: Table 4; 3 days
Description: (§1) MOLM-13 cells, MV-4-11 cells, H23, and H358 cells were independently cultured in RPMI 1640 media supplemented with 10% fetal bovine serum, streptomycin and penicillin. The cells were plated in white walled 96-well plates at 4,000 cells/well. The cells were incubated in DMSO (control) or a compound for 3 days at 37° C. under 5% CO2. A CELLTITER-GLO® reagent (100 μL) was then added to each well. After a 10 min incubation with shaking, luminescence was measured using an ENVISION® multimode plate reader.
In Tables 1 and 2, each compound was tested at 10 μM; and in Table 3, each compound was tested at 1 μM. In Tables 1 to 3, the cell viability values as % DMSO are reported as “A,” “B,” “C,” or “D;” where “A” represents a % viability value of less than 10%; “B” represents a % viability value of no less than 10% and less than 25%; “C” represents a % viability value of no less than 25% and less than 50%; and “D” represents a % viability value of no less than 50%. Compound A is
(§2) IC50 values are summarized in Table 4, where “A” represents an IC50 value of no greater than 1 μM, “B” represents an IC50 value of greater than 1 μM and no greater than 5 μM, “C” represents an IC50 value of greater than 5 μM and no greater than 10 μM, and “D” represents an IC50 value of greater than 10 μM.

H23 cells = assay: Cell viability assay (CELLTITER-GLO), H23 cells; settings: Table 4; 3 days
Description: as §1, §2

Inhibition of H358 cells, IC50 (class) (H358 cells) | SMILES | viability at 10 µM (MOLM-13 cells) | Inhibition of H23 cells, IC50 (class) (H23 cells)
A′ | C=C(Cl)C(=O)N1CCN(c2ncnc3c(F)c(-c4c(F)cccc4OC[C@H]4CC[C@H](CN5CCC(c6cc(F)cc7c6CN(C6CCC(=O)NC6=O)C7=O)CC5)CC4)c(Cl)cc23)CC1 (stereo partly drawn) [Compound 117, 3-(4-(1-(((1r,4r)-4-((2-(6-Chloro-4-(4-(2-chloroacryloyl)piperazin-1-yl)-8-fluoro-quinazolin-7-yl)-3-fluorophenoxy)methyl)cyclohexyl)methyl)piperidin-4-yl)-6-fluoro-1-oxoisoindolin-2-yl)piperidine-2,6-dione] | < 10% | A′
B′ | O=C1CCC(N2Cc3c(cc(F)cc3C3CCN(CCCCCCCOc4cccc(F)c4-c4c(Cl)cc5c(N6CCN(C(=O)C7CCNC7)CC6)ncnc5c4F)CC3)C2=O)C(=O)N1 (stereo not drawn) [Compound 79, 3-(4-(1-(7-(2-(6-Chloro-8-fluoro-4-(4-(pyrrolidine-3-carbonyl)piperazin-1-yl)quinazolin-7-yl)-3-fluorophenoxy)heptyl)piperidin-4-yl)-6-fluoro-1-oxoisoindolin-2-yl)piperidine-2,6-dione] | < 10% | B′
B′ | C=C(Cl)C(=O)N1CCN(c2ncnc3c(F)c(-c4c(F)cccc4OCCCN4CCC(c5cc(F)cc6c5CN(C5CCC(=O)NC5=O)C6=O)CC4)c(Cl)cc23)CC1 (stereo not drawn) [Compound 121, 3-(4-(1-(3-(2-(6-Chloro-4-(4-(2-chloroacryloyl)piperazin-1-yl)-8-fluoroquinazolin-7-yl)-3-fluorophenoxy)propyl)piperidin-4-yl)-6-fluoro-1-oxoisoindolin-2-yl)piperidine-2,6-dione] | < 10% | B′
B′ | C=C(Cl)C(=O)N1CCN(c2ncnc3c(F)c(-c4c(F)cccc4OCCc4ccc(CCN5CCC(c6cc(F)cc7c6CN(C6CCC(=O)NC6=O)C7=O)CC5)cc4)c(Cl)cc23)CC1 (stereo not drawn) [Compound 111, 3-(4-(1-(4-(2-(2-(6-Chloro-4-(4-(2-chloroacryloyl)piperazin-1-yl)-8-fluoroquinazolin-7-yl)-3-fluorophenoxy)ethyl)phenethyl)piperidin-4-yl)-6-fluoro-1-oxoisoindolin-2-yl)piperidine-2,6-dione] | < 10% | A′
B′ | CC/C=C(\Cl)C(=O)N1CCN(c2ncnc3c(F)c(-c4c(F)cccc4OCCCCCCCN4CCC(c5cc(F)cc6c5CN(C5CCC(=O)NC5=O)C6=O)CC4)c(Cl)cc23)CC1 (stereo not drawn) [Compound 98, (Z)-3-(4-(1-(7-(2-(6-Chloro-4-(4-(2-chloropent-2-enoyl)piperazin-1-yl)-8-fluoroquinazolin-7-yl)-3-fluorophenoxy)heptyl)piperidin-4-yl)-6-fluoro-1-oxoisoindolin-2-yl)piperidine-2,6-dione] | 25 to 50% | B′
A′ | C=C(Cl)C(=O)N1CCN(c2ncnc3c(F)c(-c4c(F)cccc4OCCOCc4ccc(COCCN5CCC(c6cc(F)cc7c6CN(C6CCC(=O)NC6=O)C7=O)CC5)cc4)c(Cl)cc23)CC1 (stereo not drawn) [Compound 101, 3-(4-(1-(2-((4-((2-(2-(6-Chloro-4-(4-(2-chloroacryloyl)piperazin-1-yl)-8-fluoroquinazolin-7-yl)-3-fluorophenoxy)ethoxy)methyl)benzyl)oxy)ethyl)piperidin-4-yl)-6-fluoro-1-oxoisoindolin-2-yl)piperidine-2,6-dione] | < 10% | A′
A′ | C=CC(=O)N1CCN(c2nc(=O)n(-c3ccccc3C(C)C)c3nc(-c4c(F)cccc4OCCCCCCCN4CCC(c5cc(F)cc6c5CN(C5CCC(=O)NC5=O)C6=O)CC4)c(F)cc23)[C@@H](C)C1 (stereo partly drawn) [Compound 72, 3-(4-(1-(7-(2-(4-((S)-4-Acryloyl-2-methylpiperazin-1-yl)-6-fluoro-1-(2-isopropylphenyl)-2-oxo-1,2-dihydropyrido[2,3-d]pyrimidin-7-yl)-3-fluorophenoxy)heptyl)piperidin-4-yl)-6-fluoro-1-oxoisoindolin-2-yl)piperidine-2,6-dione] | < 10% | B′
B′ | C=C(Cl)C(=O)N1CCN(c2nc(=O)n(-c3ccc(CCCCCCCN4CCC(c5cc(F)cc6c5CN(C5CCC(=O)NC5=O)C6=O)CC4)cc3C(C)C)c3nc(-c4c(O)cccc4F)c(F)cc23)[C@@H](C)C1 (stereo partly drawn) [Compound 126, 3-(4-(1-(7-(4-(4-((S)-4-(2-Chloroacryloyl)-2-methylpiperazin-1-yl)-6-fluoro-7-(2-fluoro-6-hydroxyphenyl)-2-oxopyrido[2,3-d]pyrimidin-1(2H)-yl)-3-isopropylphenyl)heptyl)piperidin-4-yl)-6-fluoro-1-oxoisoindolin-2-yl)piperidine-2,6-dione] | < 10% | B′
A′ | C=CC(=O)N1CCN(c2ncnc3c(F)c(-c4c(F)cccc4OCCCCCCCN4CCC(c5scc6c5CN(C5CCC(=O)NC5=O)C6=O)CC4)c(Cl)cc23)CC1 (stereo not drawn) [Compound 70, 3-(1-(1-(7-(2-(4-(4-Acryloylpiperazin-1-yl)-6-chloro-8-fluoroquinazolin-7-yl)-3-fluorophenoxy)heptyl)piperidin-4-yl)-4-oxo-4H-thieno[3,4-c]pyrrol-5(6H)-yl)piperidine-2,6-dione] | < 10% | B′
B′ | CC(C)/C=C(\C#N)C(=O)N1CCN(c2ncnc3c(F)c(-c4c(F)cccc4OCCCCCCCN4CCC(c5cc(F)cc6c5CN(C5CCC(=O)NC5=O)C6=O)CC4)c(Cl)cc23)CC1 (stereo not drawn) [Compound 80, (E)-2-(4-(6-Chloro-7-(2-((7-(4-(2-(2,6-dioxopiperidin-3-yl)-6-fluoro-1-oxoisoindolin-4-yl)piperidin-1-yl)heptyl)oxy)-6-fluorophenyl)-8-fluoroquinazolin-4-yl)piperazine-1-carbonyl)-4-methylpent-2-enenitrile] | < 10% | B′
A′ | C=C(Cl)C(=O)N1CCN(c2ncnc3c(F)c(-c4c(F)cccc4OCCCCCCCN4CCC(c5cc6c(cc5F)C(=O)N(C5CCC(=O)NC5=O)C6)CC4)c(Cl)cc23)C[C@H]1CC#N (stereo partly drawn) [Compound 123, 2-((2R)-4-(6-Chloro-7-(2-((7-(4-(2-(2,6-dioxopiperidin-3-yl)-6-fluoro-1-oxoisoindolin-5-yl)piperidin-1-yl)heptyl)oxy)-6-fluorophenyl)-8-fluoroquinazolin-4-yl)-1-(2-chloroacryloyl)-piperazin-2-yl)acetonitrile] | < 10% | A′
B′ | C=CC(=O)N1CCN(c2ncnc3c(F)c(-c4cc(OCCCCCCCN5CCC(c6cc(F)cc7c6CN(C6CCC(=O)NC6=O)C7=O)CC5)ccc4F)c(Cl)cc23)CC1 (stereo not drawn) [Compound 90, 3-(4-(1-(7-(3-(4-(4-Acryloylpiperazin-1-yl)-6-chloro-8-fluoroquinazolin-7-yl)-4-fluorophenoxy)heptyl)piperidin-4-yl)-6-fluoro-1-oxoisoindolin-2-yl)piperidine-2,6-dione] | < 10% | B′
D′ | C=CC(=O)N1CCN(c2ncnc3c(F)c(-c4cc(OCCOCCOCCC(=O)NCCNc5cccc6c5CN(C5CCC(=O)NC5=O)C6=O)ccc4F)c(Cl)cc23)CC1 (stereo not drawn) [Compound 38, 3-(2-(2-(3-(4-(4-Acryloylpiperazin-1-yl)-6-chloro-8-fluoroquinazolin-7-yl)-4-fluorophenoxy)ethoxy)ethoxy)-N-(2-((2-(2,6-dioxopiperidin-3-yl)-1-oxoisoindolin-4-yl)amino)ethyl)propanamide] | ≥ 50% | D′
B′ | CC(=O)N1CCN(c2ncnc3c(F)c(-c4c(F)cccc4OCCCCCCCN4CCC(c5cc(F)cc6c5CN(C5CCC(=O)NC5=O)C6=O)CC4)c(Cl)cc23)CC1 (stereo not drawn) [Compound 99, 3-(4-(1-(7-(2-(4-(4-Acetylpiperazin-1-yl)-6-chloro-8-fluoroquinazolin-7-yl)-3-fluorophenoxy)heptyl)piperidin-4-yl)-6-fluoro-1-oxoisoindolin-2-yl)piperidine-2,6-dione] | < 10% | B′
